Assay [1] addresses Dual specificity tyrosine-phosphorylation-regulated kinase 4 (Homo sapiens, UniProt Q9NR20). It is filed as functional.
Assay [2] addresses Dual specificity tyrosine-phosphorylation-regulated kinase 3 (Homo sapiens, UniProt O43781). It counts as functional.
The target in assay [3] is MAP kinase-activated protein kinase 3 (Homo sapiens, UniProt Q16644). It is filed as functional.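 Further: value comes from a kinome-wide profiling panel in which MAPKAPK3 is one of the panel members.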
In assay [4] the target is Calcium/calmodulin-dependent protein kinase type 1 (Homo sapiens, UniProt Q14012). It counts as functional.
Chain of Calcium/calmodulin-dependent protein kinase type 1 (Q14012 whole entry): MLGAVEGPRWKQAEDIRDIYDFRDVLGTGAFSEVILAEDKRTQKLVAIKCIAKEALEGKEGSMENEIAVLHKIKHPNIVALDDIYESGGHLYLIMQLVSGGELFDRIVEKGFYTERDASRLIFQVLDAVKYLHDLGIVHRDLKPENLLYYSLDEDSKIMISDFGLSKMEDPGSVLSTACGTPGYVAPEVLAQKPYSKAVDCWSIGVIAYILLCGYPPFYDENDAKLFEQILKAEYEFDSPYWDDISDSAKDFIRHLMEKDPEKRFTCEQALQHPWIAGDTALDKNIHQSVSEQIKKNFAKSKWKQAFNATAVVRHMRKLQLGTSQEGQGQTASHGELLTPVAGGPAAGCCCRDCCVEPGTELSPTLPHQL
In assay [5] the target is Tyrosine-protein kinase ABL1 (Homo sapiens, UniProt P00519). It is filed as functional.
Chain of Tyrosine-protein kinase ABL1 (P00519 whole entry): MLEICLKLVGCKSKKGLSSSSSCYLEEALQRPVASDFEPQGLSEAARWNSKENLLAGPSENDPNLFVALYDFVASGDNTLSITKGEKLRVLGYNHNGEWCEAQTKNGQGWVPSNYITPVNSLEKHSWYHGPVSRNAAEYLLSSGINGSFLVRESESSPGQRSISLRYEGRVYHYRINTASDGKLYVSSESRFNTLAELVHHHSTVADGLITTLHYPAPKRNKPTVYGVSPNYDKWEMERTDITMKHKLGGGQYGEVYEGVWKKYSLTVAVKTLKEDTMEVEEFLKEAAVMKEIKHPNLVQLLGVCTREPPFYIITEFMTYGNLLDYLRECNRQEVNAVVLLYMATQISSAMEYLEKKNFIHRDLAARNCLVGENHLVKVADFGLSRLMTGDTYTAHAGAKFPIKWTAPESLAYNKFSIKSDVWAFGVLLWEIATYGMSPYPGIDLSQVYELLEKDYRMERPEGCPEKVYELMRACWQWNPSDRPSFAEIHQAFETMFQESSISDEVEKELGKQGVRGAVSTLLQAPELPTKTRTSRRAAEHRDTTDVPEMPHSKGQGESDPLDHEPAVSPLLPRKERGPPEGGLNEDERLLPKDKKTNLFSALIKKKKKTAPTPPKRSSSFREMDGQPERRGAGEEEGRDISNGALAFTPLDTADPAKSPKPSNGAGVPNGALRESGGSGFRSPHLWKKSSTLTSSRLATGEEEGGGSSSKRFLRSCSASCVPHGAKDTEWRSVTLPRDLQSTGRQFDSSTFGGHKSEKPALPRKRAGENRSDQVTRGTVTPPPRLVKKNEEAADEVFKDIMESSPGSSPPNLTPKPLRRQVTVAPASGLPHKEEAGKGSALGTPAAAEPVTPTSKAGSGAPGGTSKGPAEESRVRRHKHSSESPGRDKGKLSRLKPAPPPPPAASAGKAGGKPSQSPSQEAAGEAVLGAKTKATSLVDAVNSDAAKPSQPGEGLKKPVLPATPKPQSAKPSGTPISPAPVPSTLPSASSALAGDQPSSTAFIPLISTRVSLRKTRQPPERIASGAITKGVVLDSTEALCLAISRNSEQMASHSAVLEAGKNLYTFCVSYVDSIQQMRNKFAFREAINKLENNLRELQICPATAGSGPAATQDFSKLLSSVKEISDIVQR
The target of assay [6] is Vascular endothelial growth factor receptor 3 (Homo sapiens, UniProt P35916). It counts as functional.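 Further: value from a kinome-wide profiling panel, with FLT4 as the panel member.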
Chain of Vascular endothelial growth factor receptor 3 (P35916 whole entry): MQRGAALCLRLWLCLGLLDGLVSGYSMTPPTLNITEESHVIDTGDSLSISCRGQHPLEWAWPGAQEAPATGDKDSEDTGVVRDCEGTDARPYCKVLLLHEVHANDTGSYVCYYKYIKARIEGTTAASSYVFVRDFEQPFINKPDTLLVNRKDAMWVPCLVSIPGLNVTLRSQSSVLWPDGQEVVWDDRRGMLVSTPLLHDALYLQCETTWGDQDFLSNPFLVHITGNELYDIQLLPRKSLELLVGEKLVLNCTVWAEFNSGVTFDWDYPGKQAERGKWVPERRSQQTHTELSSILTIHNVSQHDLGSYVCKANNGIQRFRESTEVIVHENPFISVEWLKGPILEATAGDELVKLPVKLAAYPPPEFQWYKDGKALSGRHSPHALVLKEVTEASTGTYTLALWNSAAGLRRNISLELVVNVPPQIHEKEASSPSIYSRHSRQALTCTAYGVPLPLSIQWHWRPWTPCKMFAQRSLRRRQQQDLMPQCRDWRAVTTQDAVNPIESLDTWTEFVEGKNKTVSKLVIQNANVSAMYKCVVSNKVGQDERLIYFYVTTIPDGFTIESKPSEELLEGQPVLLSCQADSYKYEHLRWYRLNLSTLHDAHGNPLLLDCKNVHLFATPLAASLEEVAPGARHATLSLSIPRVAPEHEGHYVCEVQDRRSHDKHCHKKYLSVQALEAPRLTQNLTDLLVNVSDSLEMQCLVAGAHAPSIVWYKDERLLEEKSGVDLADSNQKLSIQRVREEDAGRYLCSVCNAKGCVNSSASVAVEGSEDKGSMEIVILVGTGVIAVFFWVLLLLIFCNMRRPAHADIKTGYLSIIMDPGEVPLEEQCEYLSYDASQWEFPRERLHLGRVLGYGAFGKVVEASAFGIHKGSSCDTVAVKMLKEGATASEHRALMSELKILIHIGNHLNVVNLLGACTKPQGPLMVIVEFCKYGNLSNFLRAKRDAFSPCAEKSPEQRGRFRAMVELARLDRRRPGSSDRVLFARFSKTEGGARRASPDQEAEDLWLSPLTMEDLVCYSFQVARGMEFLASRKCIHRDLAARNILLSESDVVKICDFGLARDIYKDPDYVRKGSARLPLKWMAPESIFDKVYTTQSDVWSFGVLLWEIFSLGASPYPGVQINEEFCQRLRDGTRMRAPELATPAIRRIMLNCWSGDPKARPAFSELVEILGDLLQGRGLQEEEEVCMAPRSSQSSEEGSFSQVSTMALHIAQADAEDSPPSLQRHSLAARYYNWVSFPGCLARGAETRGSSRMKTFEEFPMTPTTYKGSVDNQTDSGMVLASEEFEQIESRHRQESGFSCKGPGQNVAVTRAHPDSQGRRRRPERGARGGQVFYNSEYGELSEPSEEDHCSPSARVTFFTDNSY
Assay [7] addresses Proto-oncogene tyrosine-protein kinase Src (Homo sapiens, UniProt P12931). It is filed as functional.
For assay [8], the target named is Protein-tyrosine kinase 2-beta (Homo sapiens, UniProt Q14289). It counts as functional.
The target of assay [9] is Serine/threonine-protein kinase pim-1 (Homo sapiens, UniProt P11309). It counts as functional.
Chain of Serine/threonine-protein kinase pim-1 (P11309 whole entry): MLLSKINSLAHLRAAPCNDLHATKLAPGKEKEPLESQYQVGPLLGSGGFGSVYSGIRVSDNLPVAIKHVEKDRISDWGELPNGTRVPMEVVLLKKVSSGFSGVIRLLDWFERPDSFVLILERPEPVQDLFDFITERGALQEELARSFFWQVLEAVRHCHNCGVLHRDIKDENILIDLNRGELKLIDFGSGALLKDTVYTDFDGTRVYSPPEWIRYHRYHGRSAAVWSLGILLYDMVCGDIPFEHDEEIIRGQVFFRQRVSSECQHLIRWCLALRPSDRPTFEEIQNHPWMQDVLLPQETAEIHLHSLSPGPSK
Assay [10] addresses Homeodomain-interacting protein kinase 4 (Homo sapiens, UniProt Q8NE63). It counts as functional.
For assay [11], the target named is Serine/threonine-protein kinase Nek4 (Homo sapiens, UniProt P51957). It is filed as functional.
The target in assay [12] is MAP/microtubule affinity-regulating kinase 3 (Homo sapiens, UniProt P27448). It is filed as functional.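 Further: MARK3 affinity measured as one member of a kinome panel.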
Chain of MAP/microtubule affinity-regulating kinase 3 (P27448 whole entry): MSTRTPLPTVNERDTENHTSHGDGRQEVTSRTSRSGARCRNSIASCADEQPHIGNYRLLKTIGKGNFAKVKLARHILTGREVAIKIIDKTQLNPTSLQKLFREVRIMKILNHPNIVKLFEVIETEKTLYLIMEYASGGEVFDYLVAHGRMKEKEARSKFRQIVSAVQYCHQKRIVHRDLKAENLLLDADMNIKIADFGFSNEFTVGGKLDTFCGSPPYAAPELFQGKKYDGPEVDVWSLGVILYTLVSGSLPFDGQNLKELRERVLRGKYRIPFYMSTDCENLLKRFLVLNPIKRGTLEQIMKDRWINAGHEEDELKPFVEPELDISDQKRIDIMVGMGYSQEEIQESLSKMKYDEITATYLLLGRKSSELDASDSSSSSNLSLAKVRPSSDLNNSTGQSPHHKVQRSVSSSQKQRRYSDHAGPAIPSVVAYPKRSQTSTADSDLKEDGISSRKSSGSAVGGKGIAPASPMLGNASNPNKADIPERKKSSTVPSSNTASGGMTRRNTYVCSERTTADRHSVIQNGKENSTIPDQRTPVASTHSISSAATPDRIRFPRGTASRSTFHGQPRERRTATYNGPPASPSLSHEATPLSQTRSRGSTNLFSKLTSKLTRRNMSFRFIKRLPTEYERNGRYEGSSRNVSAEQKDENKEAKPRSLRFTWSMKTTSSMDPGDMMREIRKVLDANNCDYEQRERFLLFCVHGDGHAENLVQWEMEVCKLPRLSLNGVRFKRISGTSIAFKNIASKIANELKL
Assay [13] has as its target Mitogen-activated protein kinase 9 (Homo sapiens, UniProt P45984). It counts as functional.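 Further: value from a kinome panel profiling assay, MAPK9 panel entry.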
Assay [14] deals with Serine/threonine-protein kinase 17A (Homo sapiens, UniProt Q9UEE5). It is filed as functional.
Assay [15] addresses T1, Mannose-6-phosphate isomerase (Homo sapiens, UniProt P34949).
T1 sequence (P34949 whole entry): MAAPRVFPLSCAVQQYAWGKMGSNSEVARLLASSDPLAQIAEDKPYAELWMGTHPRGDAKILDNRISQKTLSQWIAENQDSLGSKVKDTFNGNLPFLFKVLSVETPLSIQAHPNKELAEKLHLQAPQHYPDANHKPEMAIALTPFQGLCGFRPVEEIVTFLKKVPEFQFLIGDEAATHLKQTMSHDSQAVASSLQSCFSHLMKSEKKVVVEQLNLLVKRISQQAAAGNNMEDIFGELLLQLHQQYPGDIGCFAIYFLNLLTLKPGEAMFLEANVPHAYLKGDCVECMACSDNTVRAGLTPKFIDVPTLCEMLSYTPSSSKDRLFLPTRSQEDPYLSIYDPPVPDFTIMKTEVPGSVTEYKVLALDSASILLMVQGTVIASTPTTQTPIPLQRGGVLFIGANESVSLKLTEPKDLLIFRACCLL
Kind of assay: PMI enzyme inhibitors, confirmation, biochemical, fluorescence intensity (AID 1535).

The target of assay [16] is SWI/SNF-related matrix-associated actin-dependent regulator of chromatin subfamily A member 2 (Homo sapiens, UniProt P51531). Kind of assay: Luminescence-based cell-based high throughput dose response assay to identify activators of the function of SWI/SNF related, matrix associated, actin dependent regulator of chromatin, subfamily a, member 2 (SMARCA2, BRM). It is filed as functional.

Assay [17] has as its target Glucose-6-phosphate 1-dehydrogenase (Homo sapiens, UniProt P11413). Kind of assay: human G6PD enzyme inhibitors, dose response, selectivity assay for P. falciparum G6PD inhibitor project, biochemical, fluorescence (AID 504792). It counts as functional.
Assay [18] concerns the target Large T antigen (Simian virus 40, UniProt P03070). It is filed as functional, Betapolyomavirus macacae.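 Further: Confirmatory-stage PubChem screen for compounds that inhibit SV40 T antigen.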
Assay [19] has as its target T2, Aminopeptidase N (Plasmodium falciparum FcB1/Columbia, UniProt O96935).
T2 sequence (O96935 whole entry): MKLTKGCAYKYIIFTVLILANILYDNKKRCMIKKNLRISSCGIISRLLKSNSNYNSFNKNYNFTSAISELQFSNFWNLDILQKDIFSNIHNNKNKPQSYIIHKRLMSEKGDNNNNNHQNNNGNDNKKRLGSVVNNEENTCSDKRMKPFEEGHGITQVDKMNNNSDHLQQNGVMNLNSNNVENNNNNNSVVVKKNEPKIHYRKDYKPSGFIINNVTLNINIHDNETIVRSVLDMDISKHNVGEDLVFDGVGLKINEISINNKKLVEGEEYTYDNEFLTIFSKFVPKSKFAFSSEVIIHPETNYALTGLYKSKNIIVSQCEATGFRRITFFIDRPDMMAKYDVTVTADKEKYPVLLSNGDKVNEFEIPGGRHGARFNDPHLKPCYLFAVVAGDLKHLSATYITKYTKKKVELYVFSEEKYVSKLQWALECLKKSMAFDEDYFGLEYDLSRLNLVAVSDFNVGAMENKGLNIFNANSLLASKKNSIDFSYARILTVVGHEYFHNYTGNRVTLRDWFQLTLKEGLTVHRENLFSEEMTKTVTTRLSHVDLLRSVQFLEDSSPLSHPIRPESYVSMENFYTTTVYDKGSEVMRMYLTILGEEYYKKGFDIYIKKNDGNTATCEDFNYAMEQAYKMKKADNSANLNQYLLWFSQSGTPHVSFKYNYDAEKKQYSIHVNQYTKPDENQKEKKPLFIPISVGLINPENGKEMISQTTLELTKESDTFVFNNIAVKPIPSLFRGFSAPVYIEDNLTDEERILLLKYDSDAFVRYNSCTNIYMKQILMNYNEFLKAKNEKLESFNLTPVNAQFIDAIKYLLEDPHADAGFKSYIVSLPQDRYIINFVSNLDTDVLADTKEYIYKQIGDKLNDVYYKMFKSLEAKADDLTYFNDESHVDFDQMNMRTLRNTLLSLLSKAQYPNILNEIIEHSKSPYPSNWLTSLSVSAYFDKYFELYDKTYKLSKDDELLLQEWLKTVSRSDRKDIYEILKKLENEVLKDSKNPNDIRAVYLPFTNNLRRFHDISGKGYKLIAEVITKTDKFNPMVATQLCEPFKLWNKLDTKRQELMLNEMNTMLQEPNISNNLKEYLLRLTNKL
The assay is described as follows: P. falciparum M1AAP inhibitors, biochemical, fluorogenic H-Leu-NHMec substrate, 1536-well (AID 1445). Set-up: species or system Plasmodium falciparum 3D7, 3D7.

Assay [20] has as its target Tyrosyl-DNA phosphodiesterase 2 (Homo sapiens, UniProt O95551). The assay is described as follows: human TDP2 enzyme inhibitors, dose response, biochemical, epi absorbance, IC50 (AID 743297).
The target of assay [21] is Serine/threonine-protein phosphatase (Candida dubliniensis (strain CD36 / CBS 7987 / NCPF 3949 / NRRLY-17841) (Yeast), UniProt B9W6M3). The assay is described as follows: calcineurin pathway inhibitors in yeast reporter, dose response, S. cerevisiae, CDRE-lacZ, luminescence, secondary (AID 2388).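 Further: yeast reporter cells carrying a calcineurin-responsive lacZ construct stimulated with calcium chloride; luminescent beta-galactosidase reporter signal in whole cells rather than isolated phosphatase activity; potency for inhibition where a drop in reporter signal means calcineurin blockade.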 It counts as functional, cell-based.

Where “and” joins values, the source holds several entries; their conditions need not be identical. Equal values may be shown once. Calls of active or inactive are those of the source. A value given as a limit tells only on which side of the number the result lay.

Chain of Dual specificity tyrosine-phosphorylation-regulated kinase 3 (O43781 whole entry): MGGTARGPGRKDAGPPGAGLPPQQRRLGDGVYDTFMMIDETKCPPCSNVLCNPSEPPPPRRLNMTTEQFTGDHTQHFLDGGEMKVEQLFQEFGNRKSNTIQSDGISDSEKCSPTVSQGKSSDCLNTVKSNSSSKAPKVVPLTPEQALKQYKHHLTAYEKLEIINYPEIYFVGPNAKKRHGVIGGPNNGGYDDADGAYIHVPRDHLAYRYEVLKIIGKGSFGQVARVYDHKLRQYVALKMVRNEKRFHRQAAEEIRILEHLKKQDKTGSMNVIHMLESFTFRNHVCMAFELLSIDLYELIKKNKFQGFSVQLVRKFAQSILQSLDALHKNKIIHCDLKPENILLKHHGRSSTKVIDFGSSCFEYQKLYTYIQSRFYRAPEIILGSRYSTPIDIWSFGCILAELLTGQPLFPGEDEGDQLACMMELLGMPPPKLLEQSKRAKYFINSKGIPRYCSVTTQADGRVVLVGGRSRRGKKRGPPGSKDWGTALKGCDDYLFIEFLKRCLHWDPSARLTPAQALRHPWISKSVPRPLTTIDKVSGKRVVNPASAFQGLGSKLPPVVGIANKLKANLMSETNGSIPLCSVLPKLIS
Chain of Tyrosyl-DNA phosphodiesterase 2 (O95551 whole entry): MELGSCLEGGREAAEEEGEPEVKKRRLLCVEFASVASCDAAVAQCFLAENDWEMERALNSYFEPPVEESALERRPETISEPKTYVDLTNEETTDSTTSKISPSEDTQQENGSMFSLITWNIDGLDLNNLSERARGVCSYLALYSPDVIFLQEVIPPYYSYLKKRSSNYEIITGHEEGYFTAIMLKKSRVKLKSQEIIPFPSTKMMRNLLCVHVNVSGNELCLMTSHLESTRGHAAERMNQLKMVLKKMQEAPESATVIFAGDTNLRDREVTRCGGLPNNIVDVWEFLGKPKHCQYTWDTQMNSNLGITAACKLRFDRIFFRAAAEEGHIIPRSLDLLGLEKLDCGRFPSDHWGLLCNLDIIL

With `Cc1cccc(NC(=O)Nc2ccc3c(c2)CCc2sc4ncnc(N)c4c2-3)c1`, the Ki in assay [1] is 6.31 µM (active); in assay [2], > 6.31 µM (inactive); in assay [3], > 10 µM (inactive); in assay [4], > 6.31 µM (inactive); in assay [5] it was > 0.631 µM (inactive); in [6], 0.158 µM (active). Also, the Ki was > 2 µM (inactive) in assay [7]; > 1.58 µM (inactive) in [8]; 3.98 µM (active) in assay [9]; 0.0794 µM (active) in assay [10]; > 6.31 µM (inactive) in assay [11]; 3.16 µM (active) in [12]. The Ki in assay [13] and in [14] was > 3.98 µM (inactive) throughout.

In the case of `Cc1ccc(-n2sc3ccccc3c2=O)cc1`, the IC50 in assay [15] is 7.04 µM (active) and 4.06 µM (active); in assay [17], 30.1 µM (inactive). Further, the EC50 in assay [16] was > 91.2 µM (inactive).

`N/C(=N\N=C/c1ccc(-c2ccc(O)c(C(=O)O)c2)o1)N[N+](=O)[O-]`: the IC50 in assay [18] was 25.4 µM (active); in assay [19] it was 10.2 µM (active).

On to `CC(=O)N(/N=C1\Sc2ccccc2C1=O)c1ccccc1C`, for which the IC50 in [20] is 7.67 µM (active).

For `CCCC(=O)NC(c1ccc(Cl)cc1)c1ccc2cccnc2c1O` (stereo unspecified), in assay [21], the EC50 was 45.4 µM (active).

By Ki is commonly meant a dissociation constant, usually derived from enzyme kinetics or from competition with a known ligand. What is called IC50 is the concentration needed to halve the response being measured. What is called EC50 is the concentration needed to bring the measured effect to its halfway point.

The values are drawn from ChEMBL document CHEMBL1201862, “PubChem BioAssay data set” (2004).
